Experimental data published in patent publication US20220142165A1 (priority 2019, published 2022).

Experiments:
[1] = system: tomato late blight pathogen (Phylophihora infeslans); assay: whole plant or invertebrate; type: in vivo; conditions: Phytophthora infestans, 96 h, read-out: Control value
[2] = system: grape downy mildew pathogen (Plasmopara viticola); assay: Grape downy mildew control test (Test Example 2); type: in vivo; conditions: 100 ppm by mass, sprayed on grape leaf disc (variety Chardonnay) before inoculation, blotch area ratio seven days after inoculation, 20° C.; for pest or weed control at 100 ppm: Plasmopara viticola, foliar, 168 h
Protocol: 5 parts by mass of the compound according to the present invention, 93.5 parts by mass of dimethylformamide, and 1.5 parts by mass of polyoxyethylene alkylaryl ether were mixed and dissolved to prepare an emulsion (I) containing 5% by mass of an active ingredient.
The control value was calculated according to the following formula.
Control value (%)=100−{blotch area ratio in treated area/blotch area ratio in untreated area}×100
Water was added to the emulsion (I) such that the concentration of the heterocyclic compound became 100 ppm by mass, and then the heterocyclic compound was dissolved therein to obtain a pharmaceutical solution. Then, the pharmaceutical solution was sprayed on a leaf disc of grape (variety “Chardonnay”) placed on agar in a 6-well plate. After air-drying, the leaf disc on which the pharmaceutical solution was sprayed was inoculated with zoosporangia of grape downy mildew pathogen (Plasmopara viticola) in a suspension by spraying the suspension thereon (treated area). As a control, a leaf disc on which no pharmaceutical solution was sprayed was inoculated in the same way as mentioned above (untreated area). The resultant leaf discs were left in a moist chamber at 20° C. Seven days after inoculation, the grape leaf discs were visually observed to measure the blotch area ratio to calculate the control value.

## c1ccc(C(Nc2ccc3ncsc3c2)c2nnco2)cc1 (stereo not drawn) [b-5]
[1]
  pest or weed control at 125 ppm: ≥ 75%

## CCCCC(Oc1ccc2ncn(C)c2c1)c1nnco1 (stereo not drawn) [b-4]
[1]
  pest or weed control at 125 ppm: ≥ 75%

## CO/N=C/c1cc(C(Oc2cc(Br)c3ncsc3c2)c2nnco2)ncc1F (stereo not drawn) [b-56]
other
  melting point: 170 to 172 °C
[1]
  pest or weed control at 125 ppm: ≥ 75%

## C#CCO/N=C/c1ccnc(C(Oc2ccc3nc(C)sc3c2)c2nnco2)c1 (stereo not drawn) [b-26]
other
  melting point: 118 to 121 °C
[1]
  pest or weed control at 125 ppm: ≥ 75%
[2]
  pest or weed control at 100 ppm: ≥ 75%

## CCc1cc(OC(c2cc(/C=N/OC)c(F)cn2)c2nnco2)cc2sc(C)nc12 (stereo not drawn) [b-46]
other
  melting point: 145 to 147 °C
[1]
  pest or weed control at 125 ppm: ≥ 75%
[2]
  pest or weed control at 100 ppm: ≥ 75%

## CO/N=C/c1cc(C(Oc2ccc3nc(C)sc3c2)c2nnco2)ncc1F (stereo not drawn) [b-27]
other
  melting point: 129 to 131 °C
[1]
  pest or weed control at 125 ppm: ≥ 75%
[2]
  pest or weed control at 100 ppm: ≥ 75%

## C(=N\OCC1CC1)/c1ccnc(C(Oc2ccc3ncsc3c2)c2nnco2)c1 (stereo not drawn) [b-68]
[1]
  pest or weed control at 125 ppm: ≥ 75%
[2]
  pest or weed control at 100 ppm: ≥ 75%

## CO/N=C/c1cc(C(Oc2cc(C)c3nc(C)sc3c2)c2nnco2)ncc1F (stereo not drawn) [b-47]
other
  melting point: 151 to 154 °C
[1]
  pest or weed control at 125 ppm: ≥ 75%
[2]
  pest or weed control at 100 ppm: ≥ 75%

## CO/N=C/c1ccnc(C(Oc2ccc3nc(C)sc3c2)c2nnco2)c1 (stereo not drawn) [b-21]
other
  melting point: 107 to 109 °C
[1]
  pest or weed control at 125 ppm: ≥ 75%
[2]
  pest or weed control at 100 ppm: ≥ 75%

## CCCCON=CC(Oc1ccc2ncsc2c1)c1nnco1 (stereo not drawn) [b-83]
[2]
  pest or weed control at 100 ppm: ≥ 75%

## CO/N=C/c1cc(C(Oc2ccc3nc(I)sc3c2)c2nnco2)ncc1F (stereo not drawn) [b-53]
other
  melting point: 166 to 168 °C
[2]
  pest or weed control at 100 ppm: ≥ 75%

## Fc1ccc(C(Oc2ccc3ncsc3c2)c2nnco2)nc1 (stereo not drawn) [a-8, 2-((benzo[d]thiazol-6-yloxy)(5-fluoropyridin-2-yl)methyl)-1,3,4-oxadiazole]
[1]
  pest or weed control at 125 ppm: ≥ 75%
[2]
  pest or weed control at 100 ppm: ≥ 75%

## CCc1cc(OC(c2cc(/C=N/OC)c(F)cn2)c2nnco2)cc2scnc12 (stereo not drawn) [b-44]
other
  melting point: 114 to 117 °C
[1]
  pest or weed control at 125 ppm: ≥ 75%
[2]
  pest or weed control at 100 ppm: ≥ 75%

## CCCc1cc(OC(c2cc(/C=N/OC)ccn2)c2nnco2)cc2scnc12 (stereo not drawn) [b-24]
other
  melting point: 80 to 82 °C
[1]
  pest or weed control at 125 ppm: ≥ 75%
[2]
  pest or weed control at 100 ppm: ≥ 75%

## CCc1cc(OC(c2cc(/C=N/OC)c(Br)cn2)c2nnco2)cc2sc(C)nc12 (stereo not drawn) [b-52]
other
  melting point: 160 to 161 °C
[2]
  pest or weed control at 100 ppm: ≥ 75%

## Cn1cnc2c(F)cc(OC(c3ccc(F)cn3)c3nnco3)cc21 (stereo not drawn) [b-8]
[1]
  pest or weed control at 125 ppm: ≥ 75%

## CCc1cc(OC(c2cc(/C=N/OCCOC)c(F)cn2)c2nnco2)cc2sc(C)nc12 (stereo not drawn) [b-87]
other
  melting point: 138 to 139 °C
[1]
  pest or weed control at 125 ppm: ≥ 75%
[2]
  pest or weed control at 100 ppm: ≥ 75%

## CO/N=C/c1cc(C(Oc2ccc3ncsc3c2)c2nnco2)ncc1F (stereo not drawn) [b-15]
other
  melting point: 136 to 138 °C
[1]
  pest or weed control at 125 ppm: ≥ 75%
[2]
  pest or weed control at 100 ppm: ≥ 75%

## C=Cc1nc2ccc(OC(c3cc(/C=N/OC)c(F)cn3)c3nnco3)cc2s1 (stereo not drawn) [b-63]
other
  melting point: 88 to 89 °C
[1]
  pest or weed control at 125 ppm: ≥ 75%
[2]
  pest or weed control at 100 ppm: ≥ 75%

## CO/N=C/c1cc(C(Oc2cc(F)c3ncsc3c2)c2nnco2)ncc1F (stereo not drawn) [b-45]
other
  melting point: 137 to 139 °C
[1]
  pest or weed control at 125 ppm: ≥ 75%
[2]
  pest or weed control at 100 ppm: ≥ 75%

## CO/N=C/c1cc(C(Oc2ccc3ncsc3c2)c2nnco2)ncc1C (stereo not drawn) [b-59]
[2]
  pest or weed control at 100 ppm: ≥ 75%

## CO/N=C/c1cc(C(Oc2ccc3ncsc3c2C)c2nnco2)ncc1F (stereo not drawn) [b-77]
other
  melting point: 108 to 110 °C
[2]
  pest or weed control at 100 ppm: ≥ 75%

## CO/N=C/c1cc(C(Oc2ccc3nc(Br)sc3c2)c2nnco2)ncc1F (stereo not drawn) [b-43]
other
  melting point: 151 to 154 °C
[2]
  pest or weed control at 100 ppm: ≥ 75%

## CO/N=C/c1cc(C(Oc2ccc3nc(C)sc3c2)c2nnco2)ncc1F (stereo not drawn) [b-71]
other
  melting point: 167 to 168 °C

## CCOCc1ccnc(C(Oc2ccc3ncsc3c2)c2nnco2)c1 (stereo not drawn) [a-75]
[2]
  Control value: a-75%

## CO/N=C/c1ccnc(C(Oc2ccc3nnsc3c2)c2nnco2)c1 (stereo not drawn) [b-16]
other
  melting point: 172 to 173 °C
[2]
  pest or weed control at 100 ppm: ≥ 75%

## Fc1ccc(C(Oc2cc(Br)c3ncsc3c2)c2nnco2)nc1 (stereo not drawn) [a-20, 2-((4-bromobenzo[d]thiazol-6-yloxy)(5-fluoropyridin-2-yl)methyl)-1,3,4-oxadiazole]
[1]
  pest or weed control at 125 ppm: ≥ 75%
[2]
  pest or weed control at 100 ppm: ≥ 75%

## CO/N=C/c1cc(C(Oc2ccc3nc(OC)sc3c2)c2nnco2)ncc1F (stereo not drawn) [b-54]
other
  melting point: 134 to 136 °C
[2]
  pest or weed control at 100 ppm: ≥ 75%

## C(=N\OCc1nnco1)/c1ccnc(C(Oc2ccc3ncsc3c2)c2nnco2)c1 (stereo not drawn) [b-67]
[1]
  pest or weed control at 125 ppm: ≥ 75%

## CO/N=C/c1ccnc(C(Oc2ccc3ncsc3c2)c2nnco2)c1 (stereo not drawn) [b-9]
[1]
  pest or weed control at 125 ppm: ≥ 75%
[2]
  pest or weed control at 100 ppm: ≥ 75%

## COCCO/N=C/c1cc(C(Oc2ccc3nc(C)sc3c2)c2nnco2)ncc1F (stereo not drawn) [b-86]
[1]
  pest or weed control at 125 ppm: ≥ 75%
[2]
  pest or weed control at 100 ppm: ≥ 75%

## CO/N=C/c1cc(C(Oc2ccc3ncsc3c2)c2nnco2)ncc1Cl (stereo not drawn) [b-37]
[1]
  pest or weed control at 125 ppm: ≥ 75%
[2]
  pest or weed control at 100 ppm: ≥ 75%

## Cn1cnc2ccc(OC(c3ccc(Cl)cc3)c3nnco3)cc21 (stereo not drawn) [b-7]
[1]
  pest or weed control at 125 ppm: ≥ 75%

## FC(F)(F)CO/N=C/c1ccnc(C(Oc2ccc3ncsc3c2)c2nnco2)c1 (stereo not drawn) [b-19]
other
  melting point: 128 to 130 °C
[2]
  pest or weed control at 100 ppm: ≥ 75%

## COCCO/N=C/c1cc(C(Oc2ccc3ncsc3c2)c2nnco2)ncc1F (stereo not drawn) [b-85]
[1]
  pest or weed control at 125 ppm: ≥ 75%
[2]
  pest or weed control at 100 ppm: ≥ 75%

## COCOCc1ccnc(C(Oc2ccc3nc(C)sc3c2)c2nnco2)c1 (stereo not drawn) [a-175]
[2]
  Control value: a-175%

## CO/N=C/c1ccnc(C(Oc2ccc3ncsc3c2)c2nnco2)n1 (stereo not drawn) [b-25]
[1]
  pest or weed control at 125 ppm: ≥ 75%

## CC(C)=NOc1ccnc(C(Oc2ccc3ncsc3c2)c2nnco2)c1 (stereo not drawn) [b-33]
[1]
  pest or weed control at 125 ppm: ≥ 75%
[2]
  pest or weed control at 100 ppm: ≥ 75%

## CCCO/N=C/c1ccnc(C(Oc2ccc3ncsc3c2)c2nnco2)c1 (stereo not drawn) [b-69]
[1]
  pest or weed control at 125 ppm: ≥ 75%
[2]
  pest or weed control at 100 ppm: ≥ 75%

## CC(C)O/N=C/c1ccnc(C(Oc2ccc3ncsc3c2)c2nnco2)c1 (stereo not drawn) [b-18]
[1]
  pest or weed control at 125 ppm: ≥ 75%
[2]
  pest or weed control at 100 ppm: ≥ 75%

## CO/N=C/c1ccnc(C(Oc2cc(Br)c3ncsc3c2)c2nnco2)c1 (stereo not drawn) [b-13]
[1]
  pest or weed control at 125 ppm: ≥ 75%
[2]
  pest or weed control at 100 ppm: ≥ 75%

## CO/N=C/c1cc(C(Oc2ccc3ncsc3c2)c2nnco2)ncc1Br (stereo not drawn) [b-39]
[1]
  pest or weed control at 125 ppm: ≥ 75%
[2]
  pest or weed control at 100 ppm: ≥ 75%

## Cc1nc2ccc(OC(c3cc(/C=N/OCC4CC4)c(F)cn3)c3nnco3)cc2s1 (stereo not drawn) [b-49]
[1]
  pest or weed control at 125 ppm: ≥ 75%
[2]
  pest or weed control at 100 ppm: ≥ 75%

## Cn1cnc2ccc(OC(c3ccc(F)cn3)c3nnco3)cc21 (stereo not drawn) [b-6]
[1]
  pest or weed control at 125 ppm: ≥ 75%

## CO/N=C/c1cc(C(Oc2ccc3ncsc3c2N)c2nnco2)ncc1F (stereo not drawn) [b-78]
[1]
  pest or weed control at 125 ppm: ≥ 75%

## Cn1cnc2ccc(OC(c3ccccc3)c3nnco3)cc21 (stereo not drawn) [b-3]
other
  melting point: 114 to 116 °C
[1]
  pest or weed control at 125 ppm: ≥ 75%

## CO/N=C/c1cc(C(Oc2ccc3ncsc3c2)c2nnco2)ncc1[S+](C)[O-] (stereo not drawn) [b-61]
other
  melting point: 85 to 88 °C
[2]
  pest or weed control at 100 ppm: ≥ 75%

## CNc1nc2ccc(OC(c3cc(/C=N/OC)ccn3)c3nnco3)cc2s1 (stereo not drawn) [b-36]
[1]
  pest or weed control at 125 ppm: ≥ 75%
[2]
  pest or weed control at 100 ppm: ≥ 75%

## CCc1cc(OC(c2cc(/C=N/OC)ccn2)c2nnco2)cc2scnc12 (stereo not drawn) [b-14]
[1]
  pest or weed control at 125 ppm: ≥ 75%
[2]
  pest or weed control at 100 ppm: ≥ 75%

## CO/N=C/c1cc(C(Oc2ccc3nc(C(F)F)sc3c2)c2nnco2)ncc1F (stereo not drawn) [b-72]
other
  melting point: 143 to 144 °C
[2]
  pest or weed control at 100 ppm: ≥ 75%

## CO/N=C/c1ccnc(C(Oc2ccc3nc(OC)sc3c2)c2nnco2)c1 (stereo not drawn) [b-28]
[2]
  pest or weed control at 100 ppm: ≥ 75%

## C#CCO/N=C/c1ccnc(C(Oc2ccc3ncsc3c2)c2nnco2)c1 (stereo not drawn) [b-20]
[1]
  pest or weed control at 125 ppm: ≥ 75%
[2]
  pest or weed control at 100 ppm: ≥ 75%

## CCCCC(Oc1ccc2ncsc2c1)c1nnco1 (stereo not drawn) [a-1, 2-(1-(benzo[d]thiazol-6-yloxy)pentyl)-1,3,4-oxadiazole]
[1]
  pest or weed control at 125 ppm: ≥ 75%

## CO/N=C\c1cc(C(Oc2ccc3ncsc3c2)c2nnco2)ncc1F (stereo not drawn) [b-38]
[1]
  pest or weed control at 125 ppm: ≥ 75%
[2]
  pest or weed control at 100 ppm: ≥ 75%

## CO/N=C/c1cc(C(Oc2ccc3ncsc3c2)c2nnco2)ncc1SC (stereo not drawn) [b-41]
[2]
  pest or weed control at 100 ppm: ≥ 75%

## CCc1nc2ccc(OC(c3cc(/C=N/OC)ccn3)c3nnco3)cc2s1 (stereo not drawn) [b-29]
[1]
  pest or weed control at 125 ppm: ≥ 75%
[2]
  pest or weed control at 100 ppm: ≥ 75%

## c1ccc(-c2ccnc(C(Oc3ccc4nnsc4c3)c3nnco3)c2)cc1 (stereo not drawn) [b-51]
[1]
  pest or weed control at 125 ppm: ≥ 75%
[2]
  pest or weed control at 100 ppm: ≥ 75%

## COCCO/N=C/c1ccnc(C(Oc2ccc3ncsc3c2)c2nnco2)c1 (stereo not drawn) [b-70]
[1]
  pest or weed control at 125 ppm: ≥ 75%
[2]
  pest or weed control at 100 ppm: ≥ 75%

## C(=NOCc1ccccc1)C(Oc1ccc2ncsc2c1)c1nnco1 (stereo not drawn) [b-81]
[2]
  pest or weed control at 100 ppm: ≥ 75%

## CC#Cc1ccnc(C(Oc2ccc3ncsc3c2)c2nnco2)c1 (stereo not drawn) [a-45, 2-((benzo[d]thiazol-6-yloxy)(4-(prop-1-yn-1-yl)pyridin-2-yl)methyl)-1,3,4-oxadiazole]
[1]
  pest or weed control at 125 ppm: ≥ 75%
[2]
  pest or weed control at 100 ppm: ≥ 75%
